# Assay results published in patent publication US8092790B2, “Methods of making formulations to affect insect behavior and/or bird behavior” (Bug Buster, Ltd., priority 2003, dated 2012).
# Legend:
# [1] = 25° C.; cited from earlier work
# [2] = system: bees (Panurgus banksianus, P. calacaratus); conditions: in vivo; cited from earlier work
# mosquito = conditions: in vivo; cited from earlier work
# bees (Apidae, Psithyrus) = conditions: in vivo; cited from earlier work
# [3] = system: Deraeocoris brevis (Uhler); conditions: on sticky cards; cited from earlier work
# [4] = system: Orius tristicolor (White); conditions: on sticky cards; cited from earlier work
# [5] = system: seed weevil (Smicronyx spp.); assay: Comparison to 24% DEET on sunflower seed heads; assay type: in vivo; conditions: composition with 0.006% methyl anthranilate; DEET as 24% solution
# Text: An exemplary composition was compared to N,N-Diethyl-m-toluamide (DEET). The exemplary composition included an exemplary compound, methyl anthranilate (e.g., BIRDSHIELD™ at 0.006% methyl anthranilate), and an insecticide, esfenvalerate (e.g., ASANA™). A 24% DEET solution is often used in a standard evaluation process by entomologists for evaluating seed weevil (Smicronyx spp.) infestations.
# [6] = system: sunflower seed weevils (Smicronyx spp.); assay: Comparison to DEET product, drawing weevils out of sunflower heads; assay type: in vivo
# Text: DEET is often used by entomologists in standard procedures to draw sunflower seed weevils (Smicronyx spp.) out of the heads of sunflowers. In this trial, DEET was provided in the commercially available product DEEP WOODS OFF™ repellent (S.C. Johnson and Son's, Racine, Wis.), which has approximately 28.5% active ingredient; 1.5% other isomers and 70% inert ingredients. Forty-two flowers were randomly selected from interiors of three fields. One-half of the flowers were sprayed with the DEET containing repellent while the remaining flowers were sprayed with the exemplary compound at a concentration of approximately 0.00312% methyl anthranilate, which was combined with long chained fatty acids. The number of sunflower weevils was recorded.
# [7] = system: mosquito (Aedes aegyptis); assay: Mosquito repellency on human subject; assay type: in vivo; conditions: second trial; methyl anthranilate 0.00312%, DEET 0.24%; untreated head covered within one minute
# Text: In these trials, DEET was provided in the commercially available product DEEP WOODS OFF™ repellent (S.C. Johnson & Son, Inc., Racine, Wis.), which has approximately 28.5% active ingredient; 1.5% other isomers and 70% inert ingredients.
# In a first trial, a human subject was exposed to a mosquito (Aedes aegyptis) rich environment without application of the exemplary compound or DEET. Within less than one minute the subject was covered with the insects. In a second trial, the subject sprayed one unclothed arm with the exemplary compound at a rate of 0.00312% and the other unclothed arm with DEET at a concentration of 0.24%. The subject's head remained untreated. Upon returning to the test area, the subject's head was covered with the insects within one minute. […] In a third trial the subject, after removing the DEET from his/her body, reapplied the exemplary compound to unclothed arms, head and neck before returning to the test area. The subject returned to and remained in the test area for more than one hour without any of the insects landing on his/her arms, hands and head while numerous insects were observed on the clothed portions of his/her anatomy.
# sand fly = conditions: in vivo; cited from earlier work
# house fly = conditions: in vivo; cited from earlier work
# Aenictus = conditions: in vivo; cited from earlier work
# [8] = system: green lacewing (Chrysopa nigricornis Bermeister); conditions: in vivo; cited from earlier work
# bees (Apis mellifera L.) = conditions: in small groups; cited from earlier work
# birds = conditions: in vivo; cited from earlier work
molecule,measurement,setting,value
"CC(C)C(C(=O)OC(C#N)c1cccc(Oc2ccccc2)c1)c1ccc(Cl)cc1 (single isomer, unassigned; (+)) [Esfenvalerate, (+)Alpha-cyano-3-phenoxybenzyl-(+)-alpha-(4-chlorophenyl)isovalerate]",water solubility,[1],< 0.3 µg/mL
CCCCCCCO [1-heptanol],effect on behavior of bees,[2],affect behavior of bees
OCCc1ccccc1 [2-phenyl-ethanol],effect on behavior of bees,[2],affect behavior of bees
CCCCCCCCCC(C)OC(C)=O (centres unmarked) [2-undecyl acetate],effect on mosquito,mosquito,mosquito attractant
"CC(C)=CCCC(C)CCO (centres unmarked) [3,7-dimethyl-6-octen-1-ol]",effect on behavior of bees,"bees (Apidae, Psithyrus)",act as a territory marker
CC/C=C/CCOC(C)=O [(E)-3-hexenyl acetate],attraction of Deraeocoris brevis,[3],may be attracted
same,attraction of Orius tristicolor,[4],may be attracted
"CCN(CC)C(=O)c1cccc(C)c1 [DEET, N,N-Diethyl-m-toluamide, reference compound]",insects observed in sprayed sunflower seed heads,[5],No insects were observed
same,"Number of insects, Mean",[6]; Field No. 1,4.4
same,"Number of insects, Total",[6]; Field No. 1,44
same,"Number of insects, Mean",[6]; Field No. 2,12
same,"Number of insects, Total",[6]; Field No. 2,37
same,"Number of insects, Mean",[6]; Field No. 3,10.3
same,"Number of insects, Total",[6]; Field No. 3,86
same,mosquitoes on treated unclothed arm,[7],No mosquitoes were found
same,water solubility,[1],approximately 912 mg/L
CC1=CCC(C(C)(C)O)CC1 (stereo not drawn) [alpha-terpineol],effect on sand fly,sand fly,sand fly attractant
CC=CC(C)C(=O)OCC (centres unmarked) [ethyl ester of 2-methyl-3-pentenoic acid],effect on house fly,house fly,house fly attractant
CC(C)=CCC/C(C)=C/C=O [geranial],effect on behavior of bees,[2],affect behavior of bees
"CC(C)=CCC/C(C)=C/CO [geraniol, 3,7-dimethyl-2,6-octadien-I-ol]",effect on behavior of bees,[2],affect behavior of bees
CC(C)=CCC/C(C)=C/C(=O)O [geranolic acid],effect on behavior of bees,[2],affect behavior of bees
COC(=O)c1cccnc1 [methyl nicotinate],semiochemical function for Aenictus,Aenictus,trail semiochemicals
COC(=O)c1ccccc1O [methyl salicylate],attraction of green lacewing,[8],attract
CC(C)=CCC/C(C)=C\C=O [neral],effect on behavior of bees,[2],affect behavior of bees
CC(C)=CCC/C(C)=C\CO [nerol],effect on behavior of bees,[2],affect behavior of bees
CC(C)=CCC/C(C)=C\C(=O)O [nerolicacid],effect on behavior of bees,[2],affect behavior of bees
"CC(=O)c1ccccc1N [o-aminoacetophone, o-aminoacetophenone]",effect on bees,bees (Apis mellifera L.),repels bees
same,repellency to birds,birds,exhibit repellency to birds
bisabolene,effect on house fly,house fly,house fly repellent
